The assay deals with CD2F1 mice, L1210 leukemia ip, survival T/C. Description: NCI In Vivo Anticancer Drug Screen. Data for tumor model L1210 Leukemia (intraperitoneal) in CD2F1 (CDF1) mice. Conditions: higher = longer survival. The method, boiled down:
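Read-out first: treated-group measurement over vehicle-control measurement, expressed as a ratio. Animals bore a transplanted tumor line and were dosed with compound or vehicle.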

[1] abbreviates: endpoint: mean survival time, dose: 100.0 mg/kg/injection, schedule: Q01DX009 (ip), vehicle: saline with Tween-80.
The mark [2] stands for this setting: endpoint: mean survival time, dose: 200.0 mg/kg/injection, schedule: Q01DX009 (ip), vehicle: saline with Tween-80.
The mark [3] stands for this setting: endpoint: mean survival time, dose: 400.0 mg/kg/injection, schedule: Q01DX009 (ip), vehicle: saline with Tween-80.
[4] abbreviates: endpoint: mean survival time, dose: 100.0 mg/kg/injection, schedule: Q01DX001 (ip), vehicle: saline with Tween-80.
[5] abbreviates: endpoint: mean survival time, dose: 200.0 mg/kg/injection, schedule: Q01DX001 (ip), vehicle: saline with Tween-80.
[6] abbreviates: endpoint: mean survival time, dose: 400.0 mg/kg/injection, schedule: Q01DX001 (ip), vehicle: saline with Tween-80.
Setting [7] is: endpoint: mean survival time, dose: 100.0 mg/kg/injection, schedule: Q04DX003 (ip), vehicle: saline with Tween-80.
The mark [8] stands for this setting: endpoint: mean survival time, dose: 200.0 mg/kg/injection, schedule: Q04DX003 (ip), vehicle: saline with Tween-80.
The mark [9] stands for this setting: endpoint: mean survival time, dose: 400.0 mg/kg/injection, schedule: Q04DX003 (ip), vehicle: saline with Tween-80.

“And” between values parts separate entries of the source, which are not always exact repeats. Equal values may be shown once. Inconclusive results and toxic doses are left out.

As to `Nc1nc(N)c2nc(COc3ccc(C(=O)NC(CCC(=O)O)C(=O)O)cc3)ccc2n1` (centres undefined), the T/C (endpoint: mean survival time, dose: 15.63 micrograms/kg/injection, schedule: Q01DX005 (ip), vehicle: sodium bicarbonate) is 103 % of control and 106 % of control; the T/C (endpoint: mean survival time, dose: 31.25 micrograms/kg/injection, schedule: Q01DX005 (ip), vehicle: sodium bicarbonate) is 120 % of control and 107 % of control; the T/C (endpoint: mean survival time, dose: 62.5 micrograms/kg/injection, schedule: Q01DX005 (ip), vehicle: sodium bicarbonate) is 113 % of control.
For `O=C1CC(c2ccc([N+](=O)[O-])cc2)=Nc2ccccc2N1`, the T/C runs as follows: under setting [1], 102 % of control; under setting [2], 101 % of control; under setting [3], 96 % of control.
With `COC(=O)c1cc(Cl)ccc1OCC(=O)Nc1ccccc1`, the T/C was 90 % of control under setting [4], 94 % of control under setting [5] and 94 % of control under setting [6].
Regarding `Oc1ccc(N=Nc2ccccn2)c(O)c1`, the T/C is 97 % of control under setting [7], 112 % of control under setting [8] and 93 % of control under setting [9].
Take `O=C(C1CO1)C(Cl)(Cl)Cl` (centres undefined): the T/C runs as follows: (endpoint: median survival time, dose: 12.0 mg/kg/injection, schedule: Q01DX009 (ip), vehicle: saline) 111 % of control; (endpoint: median survival time, dose: 25.0 mg/kg/injection, schedule: Q01DX009 (ip), vehicle: saline) 108 % of control; (endpoint: median survival time, dose: 50.0 mg/kg/injection, schedule: Q01DX009 (ip), vehicle: saline) 117 % of control.
Regarding `Cc1ccc(C#CP(C#Cc2ccc(C)cc2)C#Cc2ccc(C)cc2)cc1`, the T/C runs as follows: (endpoint: mean survival time, dose: 1.56 mg/kg/injection, schedule: Q01DX009 (ip), vehicle: saline with Tween-80) 92 % of control; (endpoint: mean survival time, dose: 3.12 mg/kg/injection, schedule: Q01DX009 (ip), vehicle: saline with Tween-80) 96 % of control; (endpoint: mean survival time, dose: 6.25 mg/kg/injection, schedule: Q01DX009 (ip), vehicle: saline) 96 % of control; (endpoint: mean survival time, dose: 25.0 mg/kg/injection, schedule: Q01DX009 (ip), vehicle: saline) 96 % of control.
On to `CC(=O)Nc1ccc2c(c1)Cc1cc(NC(C)=O)c(Cl)cc1-2`, for which the T/C under setting [7] is 103 % of control, the T/C under setting [8] was 97 % of control and the T/C under setting [9] was 98 % of control.
Take `Cc1ccc(S(=O)(=O)N2CCC2)cc1`: the T/C was 98 % of control under setting [1]; 100 % of control under setting [7]; 102 % of control under setting [2]; 100 % of control under setting [8]; 96 % of control under setting [3]; 97 % of control under setting [9].
On to `CC(C)(C)C1C=Nn2c(=O)n(-c3ccccc3)c(=O)n21` (centres undefined), for which the T/C is 100 % of control (endpoint: mean survival time, dose: 12.5 mg/kg/injection, schedule: Q01DX009 (ip), vehicle: other); 94 % of control (endpoint: mean survival time, dose: 25.0 mg/kg/injection, schedule: Q01DX009 (ip), vehicle: other); 101 % of control (endpoint: mean survival time, dose: 50.0 mg/kg/injection, schedule: Q01DX009 (ip), vehicle: other); 100 % of control (endpoint: mean survival time, dose: 100.0 mg/kg/injection, schedule: Q01DX009 (ip), vehicle: other); 99 % of control (endpoint: mean survival time, dose: 200.0 mg/kg/injection, schedule: Q01DX009 (ip), vehicle: other).
In the case of `COC(=O)c1ncn(C2OC(COC(C)=O)C(OC(C)=O)C2OC(C)=O)c1C(=O)OC` (centres undefined), the T/C runs as follows: (endpoint: mean survival time, dose: 12.5 mg/kg/injection, schedule: Q01DX005 (ip), vehicle: water) 87 % of control; (endpoint: mean survival time, dose: 25.0 mg/kg/injection, schedule: Q01DX005 (ip), vehicle: water) 94 % of control; (endpoint: mean survival time, dose: 50.0 mg/kg/injection, schedule: Q01DX005 (ip), vehicle: water) 90 % of control; (endpoint: mean survival time, dose: 100.0 mg/kg/injection, schedule: Q01DX005 (ip), vehicle: water) 100 % of control; (endpoint: mean survival time, dose: 200.0 mg/kg/injection, schedule: Q01DX005 (ip), vehicle: water) 96 % of control.
Regarding `CCn1cnc2c(=S)nc[nH]c21`, the T/C runs as follows: (endpoint: mean survival time, dose: 9.4 mg/kg/injection, schedule: Q03HX024 (ip), vehicle: saline) 107 % of control; (endpoint: mean survival time, dose: 15.0 mg/kg/injection, schedule: Q01DX009 (ip), vehicle: saline) 104 % of control; (endpoint: mean survival time, dose: 15.0 mg/kg/injection, schedule: Q03HX008 (ip), vehicle: saline) 121 % of control; (endpoint: mean survival time, dose: 18.8 mg/kg/injection, schedule: Q03HX016 (ip), vehicle: saline) 101 % of control; (endpoint: mean survival time, dose: 30.0 mg/kg/injection, schedule: Q01DX009 (ip), vehicle: saline) 113 % of control; (endpoint: mean survival time, dose: 37.5 mg/kg/injection, schedule: Q03HX024 (ip), vehicle: saline) 156 % of control. The T/C runs as follows: (endpoint: mean survival time, dose: 56.3 mg/kg/injection, schedule: Q03HX024 (ip), vehicle: saline) 163 % of control; (endpoint: mean survival time, dose: 60.0 mg/kg/injection, schedule: Q03HX008 (ip), vehicle: saline) 161 % of control; (endpoint: mean survival time, dose: 75.0 mg/kg/injection, schedule: Q03DX003 (ip), vehicle: saline) 101 % of control; (endpoint: mean survival time, dose: 75.0 mg/kg/injection, schedule: Q03HX016 (ip), vehicle: saline) 161 % of control; (endpoint: mean survival time, dose: 75.0 mg/kg/injection, schedule: Q04DX003 (ip), vehicle: saline) 108 % of control and 109 % of control; (endpoint: mean survival time, dose: 120.0 mg/kg/injection, schedule: Q01DX009 (ip), vehicle: saline) 87 % of control. The T/C reads like this: (endpoint: mean survival time, dose: 150.0 mg/kg/injection, schedule: Q01DX001 (ip), vehicle: saline) 115 % of control; (endpoint: mean survival time, dose: 150.0 mg/kg/injection, schedule: Q01DX007 (ip), vehicle: saline) 96 % of control; (endpoint: mean survival time, dose: 150.0 mg/kg/injection, schedule: Q01DX009 (ip), vehicle: saline) 106 % of control; (endpoint: mean survival time, dose: 150.0 mg/kg/injection, schedule: Q03DX003 (ip), vehicle: saline) 112 % of control; (endpoint: mean survival time, dose: 300.0 mg/kg/injection, schedule: Q04DX003 (ip), vehicle: saline) 112 % of control; (endpoint: mean survival time, dose: 300.0 mg/kg/injection, schedule: Q08DX002 (ip), vehicle: saline) 151 % of control. Moreover, the T/C was 105 % of control (endpoint: mean survival time, dose: 600.0 mg/kg/injection, schedule: Q08DX002 (ip), vehicle: saline); 118 % of control (endpoint: median survival time, dose: 12.5 mg/kg/injection, schedule: Q01DX009 (ip), vehicle: saline with Tween-80); 118 % of control (endpoint: median survival time, dose: 25.0 mg/kg/injection, schedule: Q01DX009 (ip), vehicle: saline with Tween-80); 100 % of control and 111 % of control (endpoint: median survival time, dose: 31.3 mg/kg/injection, schedule: Q01DX009 (ip), vehicle: saline); 188 % of control (endpoint: median survival time, dose: 62.5 mg/kg/injection, schedule: Q01DX009 (ip), vehicle: saline); 183 % of control (endpoint: median survival time, dose: 100.0 mg/kg/injection, schedule: Q01DX009 (ip), vehicle: saline with Tween-80). For the same compound, the T/C was 116 % of control (endpoint: median survival time, dose: 125.0 mg/kg/injection, schedule: Q01DX009 (ip), vehicle: saline) and 118 % of control (endpoint: median survival time, dose: 200.0 mg/kg/injection, schedule: Q01DX009 (ip), vehicle: saline with Tween-80).
As to `Cc1cnc(N)nc1-c1ccccc1`, the T/C under setting [4] was 102 % of control, the T/C under setting [5] is 94 % of control and the T/C under setting [6] was 94 % of control.
Regarding `Cc1cc(O)c2c(c1O)C(=O)C13C(=C2O)C(=O)C2C(O)C1C1C(O)C3C(=O)C3=C(O)c4c(O)cc(C)c(O)c4C(=O)C321` (centres undefined), the T/C (endpoint: mean survival time, dose: 6.25 mg/kg/injection, schedule: Q04DX003 (ip), vehicle: saline with Tween-80) was 102 % of control; the T/C (endpoint: mean survival time, dose: 12.5 mg/kg/injection, schedule: Q04DX003 (ip), vehicle: saline with Tween-80) was 107 % of control; the T/C (endpoint: mean survival time, dose: 25.0 mg/kg/injection, schedule: Q04DX003 (ip), vehicle: saline with Tween-80) was 93 % of control; the T/C (endpoint: median survival time, dose: 0.78 mg/kg/injection, schedule: Q01DX009 (ip), vehicle: saline with Tween-80) is 111 % of control; the T/C (endpoint: median survival time, dose: 1.56 mg/kg/injection, schedule: Q01DX009 (ip), vehicle: saline with Tween-80) is 109 % of control; the T/C (endpoint: median survival time, dose: 3.12 mg/kg/injection, schedule: Q01DX009 (ip), vehicle: saline with Tween-80) was 97 % of control and 102 % of control.
Regarding `CCCCC1(CC)NC(=O)NC1=O` (centres undefined), the T/C (endpoint: mean survival time, dose: 100.0 mg/kg/injection, schedule: Q01DX001 (ip), vehicle: other) was 92 % of control; the T/C (endpoint: mean survival time, dose: 200.0 mg/kg/injection, schedule: Q01DX001 (ip), vehicle: other) is 92 % of control; the T/C (endpoint: mean survival time, dose: 400.0 mg/kg/injection, schedule: Q01DX001 (ip), vehicle: other) was 87 % of control.
`Nc1nc(N)c(CCCCc2ccc(NC(=O)c3cccc(S(=O)(=O)F)c3)cc2)c(N)n1`: the T/C was 96 % of control (endpoint: mean survival time, dose: 50.0 mg/kg/injection, schedule: Q01DX001 (ip), vehicle: saline with Tween-80); 107 % of control under setting [4]; 100 % of control under setting [5].

The values are drawn from PubChem BioAssay AID256 (DTP/NCI, 2004).
